Assay results from patent publication EP1984353B1, “AURORA KINASE MODULATORS AND METHOD OF USE” (Amgen, Inc, priority 2006, dated 2007).
Like-named read-outs stand apart in the source and are kept apart here.

Assays:
[1] = system: phosphorylation of Histone H3; test: HeLa cell 1-hour phospho-histone assay; assay type: cell-based; conditions: Homo sapiens, HeLa, 1 h, HeLa cells, 1 hour, average, read-out: pHH3 EC50_IP (Avg)
Method: HeLa cell 1-hour phospho-histone assay
The purpose of this assay is to test the inhibitory effect of Aurora compounds with respect to phosphorylation of Histone H3 in the cellular context. HeLa cells (9x10^4/well) are plated in black 96-well flat-bottom tissue culture plates and incubated for 40 hours prior to compound addition. Compounds are serially diluted in DMSO, followed by dilution into MEM containing […] HEPES; 10ul/well of diluted compounds are added to cells (0.5% DMSO final). Cells are incubated for 1 hour at 37 °C in 5% CO2. Cells are then fixed with 3.7% formaldehyde for 10 minutes, washed with wash buffer (1% goat serum and 0.1% Tween 20 in PBS), then permeabilized with 0.5% Triton X in PBS for 15 minutes. After washing with wash buffer, cells are incubated with primary antibody (Upstate #06-507 anti-phospho-histone (Ser 10) antibody (pHH3) for 1 hour at 10ug/ml. After 2 washes with wash buffer, cells are incubated with secondary antibody (Molecular Probes #A11034 goat anti-rabbit Alexa-488 for 1 hour at 1ug/ml + Hoechst 33342 nuclear dye at 1ug/ml (Molecular Probes). Cells are washed 2 times with wash buffer, and buffer replaced with PBS. Plates are scanned on the Cellomics Array Scan (6 fields, ~2000 cells/well) and % of cells that are pHH3 positive were calculated using the Cellomics algorithm.

AuroraB = target: T1, AuroraB (Homo sapiens, UniProt Q96GD4); test: AuroraB Homogeneous Time Resolved Fluorescent (HTRF) kinase assay; assay type: biochemical; conditions: average, read-out: AurB_ _IC50_IP (Avg)
T1 construct: 20 µL of AuroraB FL His; His
T1 sequence (Q96GD4 whole entry): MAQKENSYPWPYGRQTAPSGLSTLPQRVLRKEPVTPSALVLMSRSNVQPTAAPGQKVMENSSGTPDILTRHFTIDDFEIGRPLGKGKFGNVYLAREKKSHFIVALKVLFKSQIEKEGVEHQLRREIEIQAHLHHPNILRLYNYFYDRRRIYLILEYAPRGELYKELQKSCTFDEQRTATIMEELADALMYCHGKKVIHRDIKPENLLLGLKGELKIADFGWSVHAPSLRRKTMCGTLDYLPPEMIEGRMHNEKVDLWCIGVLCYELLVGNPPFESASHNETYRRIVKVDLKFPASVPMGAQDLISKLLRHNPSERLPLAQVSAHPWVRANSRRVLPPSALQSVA
Method in brief: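 HTRF read-out: after EDTA stop and ~60 min with europium anti-phospho-H3 antibody and streptavidin-APC, 655/615 nm ratio reports phosphorylation. Reaction: 400 pM AuroraB FL His, 23 µM ATP (at Km(app)), 0.1 µM biotin-Histone H3 peptide, 50 mM HEPES pH 7.5, MgCl/MnCl, ~90 min.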

AuroraA-TPX2 = target: T2, AuroraA-TPX2 (Homo sapiens, UniProt O14965); test: AuroraA-TPX2 Homogeneous Time Resolved Fluorescent (HTRF) kinase assay; assay type: biochemical; conditions: average, read-out: AurA/TP X2_ IC50_IP (Avg)
T2 construct: 20 µL of AuroraA-TPX2 KD GST; GST
T2 sequence (O14965 133-383 limits assumed): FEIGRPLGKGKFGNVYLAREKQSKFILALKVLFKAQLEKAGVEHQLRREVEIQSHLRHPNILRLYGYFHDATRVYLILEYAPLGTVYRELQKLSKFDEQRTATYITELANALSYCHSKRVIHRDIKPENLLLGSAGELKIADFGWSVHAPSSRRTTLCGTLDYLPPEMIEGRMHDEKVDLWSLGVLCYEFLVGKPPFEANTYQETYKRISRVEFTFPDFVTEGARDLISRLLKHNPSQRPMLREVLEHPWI
T2 sequence (Q9ULW0 1-43 partner limits assumed): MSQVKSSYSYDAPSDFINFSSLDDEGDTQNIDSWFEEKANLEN
Method in brief: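 HTRF read-out: europium anti-phosphoPLK antibody (0.02 nM) plus streptavidin-APC detect phosphorylated biotin-PLK after EDTA stop and overnight equilibration. Kinase step runs about 120 min with Aurora-A/TPX2, ATP and roughly 1 µM PLK peptide at pH 7.5 HEPES buffer with Mg2+ and DTT.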

[2] = given as numbers, unit inferred

Row | SMILES | EC50 [1, 2] | IC50 (AuroraB; [2]) | IC50 (AuroraA-TPX2; [2]) | EC50 ([1]; given as class symbols) | IC50 (AuroraB; given as class symbols) | IC50 (AuroraA-TPX2; given as class symbols)
1 | Nc1nccc(-c2cccnc2Oc2ccc(Nc3nnc(-c4ccccc4)c4ccoc34)cc2)n1 [compound 250, N-(4-((3-(2-amino-4-pyrimidinyl)-2-pyridinyl)oxy)phenyl)-4-phenylfuro[2,3-d]pyridazin-7-amine] | 175 nM | 19.9 nM | 30.3 nM |  |  | 
2 | Cc1csc(-c2nnc(Nc3ccc(Oc4ncccc4-c4ccnc(N)n4)cc3)c(C)c2C)c1 [compound 259, N-(4-((3-(2-amino-4-pyrimidinyl)-2-pyridinyl)oxy)phenyl)-4,5-dimethyl-6-(4-methyl-2-thienyl)-3-pyridazinamine] | 41.7 nM | 2.8 nM | 5.9 nM |  |  | 
3 | Nc1nccc(-c2cccnc2Oc2ccc(Nc3ncc(-c4ccccc4)c4ccccc34)cc2)n1 [compound 260, N-(4-((3-(2-amino-4-pyrimidinyl)-2-pyridinyl)oxy)phenyl)-4-phenyl-1-isoquinolinamine] | 228 nM | 14.8 nM | 33 nM |  |  | 
4 | c1ccc(-c2nnc(Nc3ccc(Oc4nccnc4-c4ccncc4)cc3)c3ccccc23)cc1 [compound 261, 4-phenyl-N-(4-((3-(4-pyridinyl)-2-pyrazinyl)oxy)phenyl)-1-phthalazinamine] |  |  |  | 500 to 2500 nM | 100 to 500 nM | 100 to 500 nM
5 | Cc1csc(-c2cnc(Nc3ccc(Oc4ncccc4-c4ccnc(N)n4)cc3)c3ccccc23)c1 [compound 262, N-(4-((3-(2-amino-4-pyrimidinyl)-2-pyridinyl)oxy)phenyl)-4-(4-methyl-2-thienyl)-1-isoquinolinamine] | 334 nM | 15.8 nM | 34.8 nM |  |  | 
6 | Nc1nccc(-c2cccnc2Oc2ccc(Nc3nnc(-c4ccccc4)cc3O)cc2)n1 [compound 263, 3-((4-((3-(2-amino-4-pyrimidinyl)-2-pyridinyl)oxy)phenyl)amino)-6-phenyl-4-pyridazinol] |  |  |  | 500 to 2500 nM | 500 to 2500 nM | 500 to 2500 nM
7 | Nc1nccc(-c2cccnc2Oc2ccc(Nc3nnc(C4CCCCC4)c4ccccc34)cn2)n1 [compound 274, N-(6-((3-(2-amino-4-pyrimidinyl)-2-pyridinyl)oxy)-3-pyridinyl)-4-cyclohexyl-1-phthalazinamine] |  |  |  | ≤ 100 nM | ≤ 100 nM | ≤ 100 nM
8 | Nc1nccc(-c2cccnc2Oc2ccc(Nc3nnc(N4CCCC(F)C4)c4ccccc34)cc2)n1 (stereo not drawn) [compound 278, N-(4-((3-(2-amino-4-pyrimidinyl)-2-pyridinyl)oxy)phenyl)-4-(3-fluoro-1-piperidinyl)-1-phthalazinamine] | 282 nM | 7.4 nM | 29.9 nM |  |  | 
9 | CN1CCN(CCCNc2cc(-c3cccnc3Oc3ccc(Nc4nnc(-c5ccccc5)c5ccccc45)cc3)ccn2)CC1 [compound 279, N-(3-(4-methyl-1-piperazinyl)propyl)-2-((4-((4-phenyl-1-phthalazinyl)amino)phenyl)oxy)-3,4'-bipyridin-2'-amine] |  |  |  | 100 to 500 nM | ≤ 100 nM | 100 to 500 nM
10 | Cc1cc(-c2ccccc2)nnc1Nc1ccc(Oc2ncccc2-c2ccnc(NCCCN3CCN(C)CC3)n2)nc1 [compound 280, 4-methyl-N-(6-((3-(2-((3-(4-methyl-1-piperazinyl)propyl)amino)-4-pyrimidinyl)-2-pyridinyl)oxy)-3-pyridinyl)-6-phenyl-3-pyridazinamine] |  |  |  | 100 to 500 nM | ≤ 100 nM | ≤ 100 nM
11 | O=C1Cc2c(-c3cccnc3Oc3ccc(Nc4nnc(-c5ccccc5)c5ccccc45)cc3)ccnc2N1 [compound 281, 4-(2-((4-((4-phenyl-1-phthalazinyl)amino)phenyl)oxy)-3-pyridinyl)-1,3-dihydro-2H-pyrrolo[2,3-b]pyridin-2-one] | 170 nM | 6.1 nM | 20.4 nM |  |  | 
12 | Cc1cc(-c2ccccc2)nnc1Nc1ccc(Oc2ncccc2-c2ccnc3c2CC(=O)N3)cc1 [compound 282, 4-(2-((4-((4-methyl-6-phenyl-3-pyridazinyl)amino)phenyl)oxy)-3-pyridinyl)-1,3-dihydro-2H-pyrrolo[2,3-b]pyridin-2-one] |  |  |  | 100 to 500 nM | ≤ 100 nM | ≤ 100 nM
